Results: patent US20250360215A1, “PHARMACEUTICAL COMBINATIONS AND METHODS FOR PREVENTING OR TREATING NEURODEGENERATIVE DISEASES” (National Health Research Institutes, priority 2022, published 2025)

Experiments:
[1] = test system: dementia in human population; test: Population-based retrospective matched cohort analysis of dementia risk (Taiwan NHIRD database); type: in vivo
Procedure: To assess the potential for applying the combined drugs identified in Example 5 for therapeutic application in patients with dementia, a long-term follow-up retrospective analysis of human efficacy predictions was conducted by using National Health Research Institutes Database (NHRID) of Taiwan. Specifically, a […] matched cohort study was conducted to assess the effectiveness of the combined use of thyroid hormones and thiazolidinediones (TZDs) in reducing the risk of dementia, based on a dataset tracked 10,535 subjects with these two drugs for 10 years.

3T3-L1 cells [2] = test: Lipid droplet accumulation in 3T3-L1 adipocytes (3D imaging, HCS LipidTOX Red neutral lipid stain); type: cell-based, mouse; settings: 1 μM peptide, 24 hours
Procedure: (§1) FIGS. 3A to 3E show the increased lipid deposition induced by Aβ42.
Scale bar: 20 μm. […] FIGS. 6H and 6I show the HDL/T-Chol (FIG. 6H) and glucose (FIG. 6I) levels in plasma of APP/PS1 mice with or without thyroxine and pioglitazone. ** p<0.01. […] Tubulin, GAPDH (glyceraldehyde-3-phosphate dehydrogenase), and ponceau S: internal controls, respectively.
The 3T3-L1 pre-adipocytes ([…], ATCC CL-173) were cultured in Dulbecco's modified Eagle medium (DMEM) (Invitrogen, USA). Cells were grown at 37° C. in a 5% CO2 humid atmosphere. The differentiation of 3T3-L1 cells into adipocyte-like cells was performed as follows. A confluence of 70% of 3T3-L1 cells was induced with MDI induction medium (containing 500 μM 3-isobutyl-1-methylxanthine (IBMX), 1 μg/mL insulin, and 1 μM dexamethasone) for 3 days, followed by changing the medium to differentiation medium (10% fetal bovine serum (FBS) in DMEM). The differentiation medium was refreshed every two days. Full differentiation was achieved by day 8.
To exclude the possibility that the visceral adiposity was a secondary event caused by factors released from other tissues/organs, 3T3-L1 adipocytes were incubated with Aβ40 or Aβ42 to determine whether and which Aβ peptides to be potent in causing lipid accumulation in adipocytes.

3T3-L1 cells [3] = test: ApoE gene expression and LXR signaling protein levels in 3T3-L1 cells treated with Aβ peptides; type: cell-based, mouse
Procedure: FIGS. 4E and 4H show the result of Western blot of LXR signaling proteins in gWAT (FIG. 4E) or BAT (FIG. 4H) of wild-type (WT) mice and APP/PS1 (AD) mice (n=2). […] ABCA1: ATP binding cassette subfamily A member 1. PPAγ: peroxisome proliferator-activated receptor gamma. Actin, GAPDH (glyceraldehyde-3-phosphate dehydrogenase) and tubulin: internal controls, respectively.
The 3T3-L1 pre-adipocytes ([…], ATCC CL-173) were cultured in Dulbecco's modified Eagle medium (DMEM) (Invitrogen, USA). Cells were grown at 37° C. in a 5% CO2 humid atmosphere. The differentiation of 3T3-L1 cells into adipocyte-like cells was performed as follows. […]
Total RNAs from brain tissues or culture cells were extracted using the illustra RNAspin Mini RNA Isolation Kit (GE Healthcare Life Sciences) for reverse transcription with the High-Capacity cDNA Reverse Transcription Kits (ABI Applied Biosystems, USA) according to the manufacturer's instructions. The quantitative real-time reverse transcription-PCR analysis was performed using the Fast SYBR Green Master Mix (ABI Applied Biosystems, USA). Results were determined using respective standard curves calculations. […]

[4] = test system: Aβ42-treated 3T3-L1 cells; test: UCP1 and PPARγ2 levels in MDI-induced, Aβ42-treated 3T3-L1 cells (screening of combination drugs); settings: MDI-induced differentiated 3T3-L1 adipocytes treated with Aβ42 (FIG. 5)
wild-type mice = test: Aβ42 intraperitoneal injection into wild-type mice (lipid deposition); type: in vivo, mouse; settings: WT mice, Aβ42 30 μg intraperitoneally three times at an interval of 3 days; 7 days after last injection
Procedure: as §1
To assess whether the Aβ peptides were involved in lipid deposition in adipose tissues, Aβ42 (30 μg) was injected intraperitoneally into WT mice three times at an interval of 3 days.

Compound	Incidence rate of dementia (per 1,000-person-year) ([1]; Group 3: TZD + T3 vs T3 only, matched cohort)	reduction of the risk of getting dementia ([1]; retrospective analysis, 10 years follow-up)	lipid droplet accumulation in adipocytes (3T3-L1 cells [2])	protein levels of LXRα, PPARγ, ABCA1 and caveolin-1 (3T3-L1 cells [3]; Western blot)	apoE gene expression (3T3-L1 cells [3]; qRT-PCR)	PPARγ2 level [4]	UCP1 level [4]	body weight and gWAT mass (wild-type mice)
N[C@@H](Cc1cc(I)c(Oc2ccc(O)c(I)c2)c(I)c1)C(=O)O [T3 only, triiodothyronine]	10.17 per 1,000-person-year	21.7%	–	–	–	–	–	–
Aβ40: amyloid β peptide Aβ40, comparison peptide	–	–	not	–	–	–	–	–
Aβ42: amyloid β peptide Aβ42, used as inducer of lipid deposition	–	–	evidently stimulated	markedly decreased	markedly upregulated	increased	decreased	rapidly increased
